Laboratory results: PMC10989020, “Preclinical characterization of a non-peptidomimetic HIV protease inhibitor with improved metabolic stability” (Antimicrobial Agents and Chemotherapy, 2024)
Like-named read-outs stand apart in the source and are kept apart here.

Legend:
[1] = test system: HIV-1 mutants resistant to NRTIs, NNRTIs, INSTIs
HIV-1IIIb = experiment: Two-drug in vitro combination assay in MT-2 cells (MacSynergy II); assay type: cell-based; conditions: for Combination effect: pairwise combination with GS-9770; for Antagonism volume / Synergy volume: pairwise combination with GS-9770, 99% confidence, MT-2/HIV-1IIIb
Experimental: Anti-HIV-1 assays evaluating the in vitro antiviral effect of two-drug combinations were performed in MT-2 cells as previously described ([26]). Data were normalized to positive and negative controls in each plate and expressed as a percentage of protection from CPE-dependent cell death and analyzed with the MacSynergy II software. Combination data were analyzed at the 99% confidence level, with synergy/antagonism volumes defined as follows: high synergy (>100 µM^2%), moderate synergy (50 to <100 uM^2%), additivity (>−50 to <50 µM^2%), and antagonism (<−50 µM^2%).

[2] = Cytotoxicity in unstimulated PBMCs; assay type: cell-based; conditions: human, unstimulated (resting) PBMCs
Experimental: (§1) Compound cytotoxicity assessment in MT-4 cells, primary CD4+ T lymphocytes, and MDMs was carried out using a protocol identical to the antiviral assay except uninfected cells were used and tested with higher concentration ranges of test compounds. Assessment of cytotoxicity in additional human cell lines (Gal-PC3, Gal-HepG2, HEp-2, Huh-7, MRC-5, HepG2-NTCP, Huh7-Lunet HCV 1b and 2a replicons, NHBE, A549-hACE2) and primary human PBMCs (resting and stimulated with PHA/IL-2) and hepatocytes have been described previously ([19]). For all cytotoxicity assays, the CC50 value for puromycin was determined as a positive internal control and to assess assay sensitivity in each cell type. The effect of tested compounds on cell viability was measured using a CellTiter-Glo readout, performed according to the manufacturer’s recommendations.

Cytotoxicity in Huh-7 = assay type: cell-based; conditions: human, Huh-7 cells
Experimental: as §1

[3] = Cytotoxicity in Gal-HepG2; assay type: cell-based; conditions: human, Gal-HepG2 cells
Experimental: as §1

[4] = Cytotoxicity across human cell types (summary ranges); assay type: cell-based; conditions: human, human cell lines and primary cells (all cell types tested); across all of the cell types tested; read-out: mean CC50 range
Experimental: as §1

Cytotoxicity in MRC-5 = assay type: cell-based; conditions: human, MRC-5 cells
Experimental: as §1

[5] = Cytotoxicity in stimulated PBMCs; assay type: cell-based; conditions: human
Experimental: as §1

[6] = Cytotoxicity in primary human hepatocytes; assay type: cell-based
Experimental: as §1

Cytotoxicity in Gal-PC3 = assay type: cell-based; conditions: human, Gal-PC3 cells
Experimental: as §1

Cytotoxicity in HEp-2 = assay type: cell-based; conditions: human, HEp-2 cells
Experimental: as §1

| SMILES | Combination effect (HIV-1IIIb) | Antagonism volume (HIV-1IIIb) [µM^2.%] | Synergy volume (HIV-1IIIb) [µM^2.%] | other results |
| --- | --- | --- | --- | --- |
| Nc1nc(=O)n([C@@H]2CS[C@H](CO)O2)cc1F [FTC, emtricitabine] | Highly synergistic | −8 ± 11 | 139 ± 24 | Fold resistance (mutant/wildtype EC50 ratio) ([1]; 6TAMs): 23 ± 21; Fold resistance (mutant/wildtype EC50 ratio) ([1]; K65R): 12 ± 6; Fold resistance (mutant/wildtype EC50 ratio) ([1]; M184V): >141 |
| CC(C)(C#Cc1ccc(-c2ccc(Cl)c3c(NS(C)(=O)=O)nn(CC(F)(F)F)c23)c([C@H](Cc2cc(F)cc(F)c2)NC(=O)Cn2nc(C(F)(F)F)c3c2C(F)(F)[C@@H]2C[C@H]32)n1)S(C)(=O)=O [LEN, lenacapavir] | Highly synergistic | −0.6 ± 1.7 | 201 ± 111 | – |
| COc1ccc(C[C@H](N)C(=O)N[C@H]2[C@@H](O)[C@H](n3cnc4c(N(C)C)ncnc43)O[C@@H]2CO)cc1 [Puromycin, puromycin] | – | – | – | CC50 [2]: 0.54 ± 0.21 µM; CC50 (Cytotoxicity in Huh-7): 0.8 ± 0.7 µM; CC50 [3]: 1.4 ± 0.8 µM; CC50 [4]: 0.31 to 1.6 µM; CC50 (Cytotoxicity in MRC-5): 0.31 ± 0.2 µM; CC50 [5]: 0.8 ± 0.15 µM; CC50 [6]: 1.6 ± 0.2 µM; CC50 (Cytotoxicity in Gal-PC3): 0.45 ± 0.17 µM; CC50 (Cytotoxicity in HEp-2): 0.6 ± 0.3 µM |
| Cc1cc(/C=C/C#N)cc(C)c1Nc1ccnc(Nc2ccc(C#N)cc2)n1 [RPV, rilpivirine] | Highly synergistic | 0 ± 0 | 184 ± 65 | – |
| CC(C)OC(=O)[C@H](C)N[P@](=O)(CO[C@H](C)Cn1cnc2c(N)ncnc21)Oc1ccccc1 [TAF, tenofovir alafenamide] | Highly synergistic | −4 ± 7 | 166 ± 51 | – |
